Measured values reported in patent publication US20240245677A1, “SELECTED COMPOUNDS FOR TARGETED DEGRADATION OF BRD9” (C4 THERAPEUTICS, INC., priority 2021, published 2024).
Read-outs that look alike come from different tables or passages of the source.

Test: Pharmacokinetic study in male Sprague Dawley rats
Assay type: in vivo, rat
Settings: rat, plasma, Male Sprague Dawley Rats
Method: The pharmacokinetic (PK) profile in plasma of Compound 1 was determined in male Sprague Dawley rats following single dose intravenous (IV) (2 mg/kg) and per os (PO) (10 mg/kg) administration. This study was performed under non-GLP conditions, and unless otherwise stated, all analytical reagents were at least standard laboratory reagent grade, and deionized water was prepared at the study site.
The characteristics of Compound 1 used in this study were as follows: molecular weight of base, 710.78; molecular weight of Compound 1 with salt, 824.81; purity on as is basis, 99.28%.
All animals were housed in cages with clean bedding and maintained and monitored for good health and at the discretion of the laboratory animal veterinarian. Certified rodent diet was provided, and water was available ad libitum. Environmental controls for the animal room were set to maintain a temperature of 22 to 25° C., humidity of 40-70% relative humidity, and a 12-hour light/12-hour dark cycle.
Normal healthy animals certified by the attending veterinarian were selected and acclimatized for a minimum of three days prior to initiation of the study. Animals were identified by body markings.
The rats were anaesthetized with a single dose of ketamine 50 mg/kg i.p. plus xylazine 6 mg/kg i.p. The right jugular was exposed, and a loose ligature was placed caudally, and the cranial end of the vein was ligated. A small incision was made between the ligatures into which a catheter (polyethylene 50 tubing with an internal diameter of 0.58 mm and outer diameter of 0.96 mm) was inserted. The catheter was secured in place by tying the loose ligature around the catheterized vessel. A small incision was made in the scapular region to serve as the exit site of the catheter. The catheter was subcutaneously tunneled and exteriorized through the scapular incision. A stay suture was placed in the scapular area. Patency was tested, and the catheter was filled with a locking solution (heparinized saline) and sealed with a stainless-steel plug. The incision was then sutured with sterile suturing material. Anti-septic solution was applied to the sutured site and the animal was placed back in its home cage. The animals were closely observed throughout the recovery period of 24 hours. The rats were freely moving in the cage (one rat per cage).
Test animals were weighed prior to drug administration, and the standard weight of the animals used was 190 grams. The animals were divided into two groups, IV group and PO group, with each group containing 3 test animals each and 2 spare animals. The IV dose was administered by intravenous injection into the tail vein and PO dose was administered via oral gavage needle. The dosing volume was 5 mL/kg body weight for both groups. The dosing concentration was 0.4 mg/mL for the IV group and 2 mg/mL for the PO group. The animals were in fasted state during the study.
For both dosing groups, blood was collected from the jugular vein (serial sampling) for plasma isolation at 0.033, 0.33, 1, 2, 4, 6, 8, and 24 hour timepoints. The anti-coagulant solution used was 6% (v/v) sodium citrate (200 mM, pH 4.79).
For sample collection, the animals were held to remove the first two drops of blood from the cannula to ensure removal of any excess heparinized saline before collection of blood. The external catheter was connected to a syringe and 0.20-0.30 mL of blood was collected in the syringe and transferred to a pre-labeled, pre-chilled tube. Blood volume was replaced by administering to the animal an equal volume of saline through the jugular vein. After blood collection from each animal, the sample from that animal was recorded in the sample collection sheet.
After collection of each blood sample, the blood sample was stored on ice prior to centrifugation. Blood samples were centrifuged within 20 minutes of collection to separate plasma. Centrifugation was conducted at 2500×g for 15 minutes at 4° C. […]

[1] = male, Sprague Dawley, oral, 10 mg/kg, 10 mg/kg PO, Rat-1, read-out: Plasma Concentration (ng/mL) Rat-1
[2] = male, Sprague Dawley, oral, 10 mg/kg, 10 mg/kg PO, Rat-2, read-out: Plasma Concentration (ng/mL) Rat-2
[3] = male, Sprague Dawley, oral, 10 mg/kg, 10 mg/kg PO, Rat-3, read-out: Plasma Concentration (ng/mL) Rat-3
[4] = male, Sprague Dawley, oral, 10 mg/kg, 10 mg/kg PO, average, read-out: Plasma Concentration Average

COc1cc(-c2cn(C)c(=O)c(C)c2C)cc(OC)c1CN1CC[C@H](N2CCN(c3ccc(N[C@H]4CCC(=O)NC4=O)cc3F)CC2)C(F)(F)C1 [Compound 1, (S)-3-((4-(4-((S)-1-(2,6-dimethoxy-4-(1,4,5-trimethyl-6-oxo-1,6-dihydropyridin-3-yl)benzyl)-3,3-difluoropiperidin-4-yl)piperazin-1-yl)-3-fluorophenyl)amino)-piperidine-2,6-dione]
concentration at 0.33 h (male, Sprague Dawley, oral, 10 mg/kg, 10 mg/kg PO, 0.33 h, average, read-out: Plasma Concentration Average): 247 ng/mL
concentration at 1 h [1]: 648 ng/mL
concentration at 1 h [2]: 416 ng/mL
concentration at 1 h [3]: 729 ng/mL
concentration at 1 h [4]: 598 ng/mL
concentration at 2 h [1]: 560 ng/mL
concentration at 2 h [2]: 864 ng/mL
concentration at 2 h [3]: 594 ng/mL
concentration at 2 h [4]: 673 ng/mL
concentration at 4 h (male, Sprague Dawley, oral, 10 mg/kg, 10 mg/kg PO, Rat-1, *Outlier: Aberrant value, read-out: Plasma Concentration (ng/mL) Rat-1): 227 ng/mL
concentration at 4 h [2]: 593 ng/mL
concentration at 4 h [3]: 420 ng/mL
concentration at 4 h [4]: 506 ng/mL
concentration at 8 h [1]: 304 ng/mL
concentration at 8 h [2]: 527 ng/mL
concentration at 8 h [3]: 370 ng/mL
concentration at 8 h [4]: 400 ng/mL
concentration at 24 h [1]: 21.5 ng/mL
concentration at 24 h [2]: 49.3 ng/mL
concentration at 24 h [3]: 36.8 ng/mL
concentration at 24 h [4]: 35.8 ng/mL
AUC(0-inf) (2 mg/kg IV, mean): 1540 ng·h/mL
AUC(0-t) (2 mg/kg IV, mean): 1520 ng·h/mL
C0 (2 mg/kg IV, mean): 879 ng/mL
MRT last (2 mg/kg IV, mean): 4.82 h
half-life (2 mg/kg IV, mean): 3.97 h
Vd (2 mg/kg IV, mean, read-out: Vdss): 6.7 L/kg
AUC(0-inf) (10 mg/kg PO, mean): 6560 ng·h/mL
AUC(0-t) (10 mg/kg PO, mean): 6290 ng·h/mL
Cmax (10 mg/kg PO, mean): 747 ng/mL
MRT last (10 mg/kg PO, mean): 7.34 h
Tmax (10 mg/kg PO, mean): 1.33 h
bioavailability (10 mg/kg PO, mean): 82.8%
half-life (10 mg/kg PO, mean): 5.12 h
